{
  "source": "PubChem BioAssay AID328",
  "about": "(DTP/NCI, 2004)",
  "tested_on": "BDF1 mice, P388 leukemia ip, median survival T/C",
  "assay": "NCI In Vivo Anticancer Drug Screen. Data for tumor model P388 Leukemia (intraperitoneal) in B6D2F1 (BDF1) mice",
  "settings": "endpoint: median survival time, higher = longer survival",
  "procedure,_shortened": "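Each value expresses how treatment altered survival: treated-mouse outcome over vehicle-mouse outcome, both groups bearing the transplanted tumour.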",
  "key": {"[1]": {"settings": "dose: 100.0 mg/kg/injection, schedule: Q04DX003 (ip), vehicle: saline with Tween-80"}, "[2]": {"settings": "dose: 200.0 mg/kg/injection, schedule: Q04DX003 (ip), vehicle: saline with Tween-80"}, "[3]": {"settings": "dose: 400.0 mg/kg/injection, schedule: Q04DX003 (ip), vehicle: saline with Tween-80"}},
  "note": "Where “and” joins values, the source holds several entries; their conditions need not be identical. Equal entries are not always repeated. Inconclusive results and toxic doses are left out. Residues, ends and D or L forms follow the SMILES beside them. *: point of attachment. Trt = c1ccc(C(c2ccccc2)(c2ccccc2)*)cc1; Boc = CC(C)(C)OC(=O)*",
  "data": [
    {"compound": "Cc1cc(N(CCCl)CCCl)ccc1C=Nc1ccccc1-c1ccccc1", "values": [
      {"measurement": "T/C", "setting": "dose: 100.0 mg/kg/injection, schedule: Q01DX009 (ip), vehicle: Klucel (hydroxypropylcellulose) (HPC)", "value": "120 % of control"},
      {"measurement": "T/C", "setting": "dose: 100.0 mg/kg/injection, schedule: Q04DX003 (ip), vehicle: Klucel (hydroxypropylcellulose) (HPC)", "value": "112 % of control"},
      {"measurement": "T/C", "setting": "dose: 200.0 mg/kg/injection, schedule: Q04DX003 (ip), vehicle: Klucel (hydroxypropylcellulose) (HPC)", "value": "116 % of control"},
      {"measurement": "T/C", "setting": "dose: 266.0 mg/kg/injection, schedule: Q04DX003 (ip), vehicle: Klucel (hydroxypropylcellulose) (HPC)", "value": "120 % of control"},
      {"measurement": "T/C", "setting": "dose: 400.0 mg/kg/injection, schedule: Q01DX009 (ip), vehicle: Klucel (hydroxypropylcellulose) (HPC)", "value": "150 % of control and 158 % of control"},
      {"measurement": "T/C", "setting": "dose: 400.0 mg/kg/injection, schedule: Q04DX003 (ip), vehicle: Klucel (hydroxypropylcellulose) (HPC)", "value": "95 % of control"},
      {"measurement": "T/C", "setting": "dose: 600.0 mg/kg/injection, schedule: Q01DX009 (ip), vehicle: Klucel (hydroxypropylcellulose) (HPC)", "value": "200 % of control"},
      {"measurement": "T/C", "setting": "dose: 600.0 mg/kg/injection, schedule: Q04DX003 (ip), vehicle: Klucel (hydroxypropylcellulose) (HPC)", "value": "154 % of control"}
    ]},
    {"compound": "CC(C)(C)OC(=O)NCCCCC(NC(=O)CNC(=O)C(CSC(c1ccccc1)(c1ccccc1)c1ccccc1)NC(=O)OC(C)(C)C)C(=O)O", "note": "(configuration not stated) (Boc-Cys(Trt)-Gly-Lys(Boc)-OH; configuration not given here)", "values": [
      {"measurement": "T/C", "setting": "dose: 25.0 mg/kg/injection, schedule: Q04DX003 (ip), vehicle: saline", "value": "100 % of control"},
      {"measurement": "T/C", "setting": "dose: 50.0 mg/kg/injection, schedule: Q04DX003 (ip), vehicle: saline", "value": "104 % of control"},
      {"measurement": "T/C", "setting": "dose: 100.0 mg/kg/injection, schedule: Q04DX003 (ip), vehicle: saline", "value": "104 % of control"}
    ]},
    {"compound": "O=C1C=CC(=O)N1Cc1ccco1", "values": [
      {"measurement": "T/C", "setting": "dose: 50.0 mg/kg/injection, schedule: Q01DX009 (ip), vehicle: saline", "value": "100 % of control"},
      {"measurement": "T/C", "setting": "dose: 100.0 mg/kg/injection, schedule: Q01DX009 (ip), vehicle: saline", "value": "91 % of control and 95 % of control"},
      {"measurement": "T/C", "setting": "dose: 200.0 mg/kg/injection, schedule: Q01DX009 (ip), vehicle: saline", "value": "100 % of control"},
      {"measurement": "T/C", "setting": "dose: 400.0 mg/kg/injection, schedule: Q01DX009 (ip), vehicle: saline", "value": "91 % of control"}
    ]},
    {"compound": "c1cc[c]([Pb]([c]2ccccc2)([c]2ccccc2)[n]2c3ccccc3c3ccccc32)cc1", "values": [
      {"measurement": "T/C", "setting": "dose: 0.19 mg/kg/injection, schedule: Q01DX009 (ip), vehicle: saline", "value": "90 % of control"},
      {"measurement": "T/C", "setting": "dose: 0.39 mg/kg/injection, schedule: Q01DX009 (ip), vehicle: saline", "value": "100 % of control"},
      {"measurement": "T/C", "setting": "dose: 0.78 mg/kg/injection, schedule: Q01DX009 (ip), vehicle: saline", "value": "95 % of control"},
      {"measurement": "T/C", "setting": "dose: 1.56 mg/kg/injection, schedule: Q01DX009 (ip), vehicle: saline", "value": "100 % of control"},
      {"measurement": "T/C", "setting": "dose: 3.0 mg/kg/injection, schedule: Q04DX003 (ip), vehicle: saline", "value": "112 % of control"},
      {"measurement": "T/C", "setting": "dose: 4.12 mg/kg/injection, schedule: Q01DX009 (ip), vehicle: saline", "value": "100 % of control"},
      {"measurement": "T/C", "setting": "dose: 6.0 mg/kg/injection, schedule: Q04DX003 (ip), vehicle: saline", "value": "116 % of control"},
      {"measurement": "T/C", "setting": "dose: 12.0 mg/kg/injection, schedule: Q04DX003 (ip), vehicle: saline", "value": "104 % of control"}
    ]},
    {"compound": "Nc1nc(N)c2ncc(/C=C/c3ccc(Cl)c(Cl)c3)nc2n1", "values": [
      {"measurement": "T/C", "setting": "[1]", "value": "91 % of control"},
      {"measurement": "T/C", "setting": "[2]", "value": "90 % of control"},
      {"measurement": "T/C", "setting": "[3]", "value": "108 % of control"}
    ]},
    {"compound": "CCOC(=O)c1nnc(-c2ccccc2)c(-c2ccccc2)n1", "values": [
      {"measurement": "T/C", "setting": "[1]", "value": "104 % of control"},
      {"measurement": "T/C", "setting": "[2]", "value": "96 % of control"},
      {"measurement": "T/C", "setting": "[3]", "value": "89 % of control"}
    ]},
    {"compound": "C=C1C(=O)OC2CC(C)C3C=CC(=O)C3(C)C(O)C12", "note": "(configuration not stated)", "values": [
      {"measurement": "T/C", "setting": "dose: 5.0 mg/kg/injection, schedule: Q01DX009 (ip), vehicle: saline with Tween-80", "value": "113 % of control"},
      {"measurement": "T/C", "setting": "dose: 10.0 mg/kg/injection, schedule: Q01DX009 (ip), vehicle: saline with Tween-80", "value": "112 % of control"},
      {"measurement": "T/C", "setting": "dose: 20.0 mg/kg/injection, schedule: Q01DX009 (ip), vehicle: saline with Tween-80", "value": "115 % of control"}
    ]},
    {"compound": "COc1cc(/C=N\\NC(C)=O)cc(OC)c1OC", "values": [
      {"measurement": "T/C", "setting": "dose: 50.0 mg/kg/injection, schedule: Q04DX003 (ip), vehicle: saline with Tween-80", "value": "100 % of control"},
      {"measurement": "T/C", "setting": "[1]", "value": "90 % of control"},
      {"measurement": "T/C", "setting": "[2]", "value": "90 % of control"}
    ]},
    {"compound": "O=C1c2ccccc2C(=O)c2cc3c(cc21)CCCC3", "values": [
      {"measurement": "T/C", "setting": "dose: 50.0 mg/kg/injection, schedule: Q01DX009 (ip), vehicle: water", "value": "94 % of control"},
      {"measurement": "T/C", "setting": "dose: 100.0 mg/kg/injection, schedule: Q01DX009 (ip), vehicle: water", "value": "87 % of control"},
      {"measurement": "T/C", "setting": "dose: 400.0 mg/kg/injection, schedule: Q01DX009 (ip), vehicle: water", "value": "96 % of control"},
      {"measurement": "T/C", "setting": "dose: 800.0 mg/kg/injection, schedule: Q01DX009 (ip), vehicle: water", "value": "107 % of control"}
    ]},
    {"compound": "Cc1cccc(NNC(=S)Nc2ccccc2)c1", "values": [
      {"measurement": "T/C", "setting": "dose: 100.0 mg/kg/injection, schedule: Q01DX009 (ip), vehicle: saline with Tween-80", "value": "104 % of control"},
      {"measurement": "T/C", "setting": "dose: 200.0 mg/kg/injection, schedule: Q01DX009 (ip), vehicle: saline with Tween-80", "value": "95 % of control"},
      {"measurement": "T/C", "setting": "dose: 400.0 mg/kg/injection, schedule: Q01DX009 (ip), vehicle: saline with Tween-80", "value": "104 % of control"}
    ]}
  ]
}
